Measured values taken from ChEMBL document CHEMBL3885861, “Open TG-GATES”.

Organism: Rattus norvegicus
Test: Open TG-GATES - Regimen: Daily Repeat
Format: toxicity, organism-based, Sprague-Dawley
Set-up: regimen Daily Repeat, gender Male, age 6 weeks
Conditions: in vivo, po, route gavage; for APTT / Bas / Eos / Fbg / Hb / Ht / Lym / MCH / MCHC / MCV / Mono / Neu / PT / Plat / RBC / Ret / WBC: tissue Blood; for KIDNEY_L / KIDNEY_R / KIDNEY_TOTAL: tissue Kidney; for LIVER: tissue Liver; for ALP / ALT / AST / BUN / CRE / Ca / DBIL / GLC / IP / K / LDH / Na / PL / RALB / TBIL / TC / TP / gamma-GTP / TG: tissue Plasma
[1] = 50 mg/kg, 72 h, dose level Middle, time 3 day
[2] = 50 mg/kg, […], dose level Middle, time 7 day
[3] = 50 mg/kg, […], dose level Middle, time 14 day
[4] = 50 mg/kg, […], dose level Middle, time 28 day
[5] = 150 mg/kg, 72 h, dose level High, time 3 day
[6] = 150 mg/kg, […], dose level High, time 7 day
[7] = 150 mg/kg, […], dose level High, time 14 day
[8] = 150 mg/kg, […], dose level High, time 28 day

## Oc1ncnc2[nH]ncc12 [ALLOPURINOL]
[1]
  APTT: 16.2 s
  Bas: 0%
  Eos: 1.4%
  Fbg: 261.6 mg/dL
  Hb: 13.5 g/dL
  Ht: 40%
  Lym: 75%
  MCH: 21.9 pg
  MCHC: 33.7%
  MCV: 64.9 fL
  Mono: 9.2%
  Neu: 14.4%
  PT: 12.3 s
  Plat: 108.7 x10_4/uL
  RBC: 618 x10_4/ul
  Ret: 6.3%
  WBC: 139.1 x10_2/uL
  KIDNEY_L: 1.2 g
  KIDNEY_R: 1.2 g
  KIDNEY_TOTAL: 2.3 g
  LIVER: 11.5 g
  ALP: 918 IU/L
  ALT: 33.8 IU/L
  AST: 65.8 IU/L
  BUN: 20.6 mg/dL
  CRE: 0.5 mg/dL
  Ca: 11.1 mg/dL
  DBIL: 0.004 mg/dL
  GLC: 194.4 mg/dL
  IP: 7 mg/dL
  K: 4.7 meq/L
  LDH: 111.4 IU/L
  Na: 138.2 meq/L
  PL: 150 mg/dL
  RALB: 3.9 g/dL
  TBIL: 0.3 mg/dL
  TC: 79.4 mg/dL
  TP: 6.1 g/dL
  gamma-GTP: 2 IU/L
[2]
  TERMINAL_BW: 270.7 g
  APTT: 16.4 s
  Bas: 0%
  Eos: 0.4%
  Fbg: 246 mg/dL
  Hb: 14.2 g/dL
  Ht: 42.3%
  Lym: 86.4%
  MCH: 21.4 pg
  MCHC: 33.6%
  MCV: 63.9 fL
  Mono: 3.8%
  Neu: 9.4%
  PT: 11.8 s
  Plat: 120 x10_4/uL
  RBC: 661.2 x10_4/ul
  Ret: 5.3%
  WBC: 129.4 x10_2/uL
  KIDNEY_L: 1.2 g
  KIDNEY_R: 1.2 g
  KIDNEY_TOTAL: 2.4 g
  LIVER: 13.3 g
  ALP: 917.6 IU/L
  ALT: 33.4 IU/L
  AST: 64 IU/L
  BUN: 20.2 mg/dL
  CRE: 0.5 mg/dL
  Ca: 11.4 mg/dL
  DBIL: 0.034 mg/dL
  GLC: 207.2 mg/dL
  IP: 7.6 mg/dL
  K: 4.3 meq/L
  LDH: 87 IU/L
  Na: 140.2 meq/L
  PL: 158.2 mg/dL
  RALB: 3.9 g/dL
  TBIL: 0.3 mg/dL
  TC: 74.4 mg/dL
  TG: 144.4 mg/dL
  TP: 6.1 g/dL
  gamma-GTP: 1.2 IU/L
[3]
  TERMINAL_BW: 308.6 g
  APTT: 16.5 s
  Bas: 0%
  Eos: 0.6%
  Fbg: 232.2 mg/dL
  Hb: 14.9 g/dL
  Ht: 44.6%
  Lym: 84%
  MCH: 20.8 pg
  MCHC: 33.4%
  MCV: 62.2 fL
  Mono: 3.6%
  Neu: 12.2%
  PT: 11.9 s
  Plat: 111.6 x10_4/uL
  RBC: 716 x10_4/ul
  Ret: 4.2%
  WBC: 114 x10_2/uL
  KIDNEY_L: 1.3 g
  KIDNEY_R: 1.3 g
  KIDNEY_TOTAL: 2.5 g
  LIVER: 14 g
  ALP: 645.2 IU/L
  ALT: 29.8 IU/L
  AST: 63 IU/L
  BUN: 20.2 mg/dL
  CRE: 0.6 mg/dL
  DBIL: 0.002 mg/dL
  GLC: 200 mg/dL
  IP: 7.5 mg/dL
  K: 4.5 meq/L
  LDH: 71.2 IU/L
  Na: 139.6 meq/L
  PL: 147.4 mg/dL
  RALB: 3.8 g/dL
  TBIL: 0.3 mg/dL
  TC: 65.8 mg/dL
  TG: 131.2 mg/dL
  TP: 6.2 g/dL
  gamma-GTP: 1.6 IU/L
[4]
  TERMINAL_BW: 380.1 g
  APTT: 16.8 s
  Bas: 0%
  Eos: 1%
  Fbg: 225.6 mg/dL
  Hb: 15.2 g/dL
  Ht: 45%
  Lym: 78.8%
  MCH: 19.8 pg
  MCHC: 33.8%
  MCV: 58.5 fL
  Mono: 4.8%
  Neu: 15.6%
  PT: 12.1 s
  Plat: 101.2 x10_4/uL
  RBC: 770.4 x10_4/ul
  Ret: 2.9%
  WBC: 128.2 x10_2/uL
  KIDNEY_L: 1.5 g
  KIDNEY_R: 1.5 g
  KIDNEY_TOTAL: 3.1 g
  LIVER: 15.1 g
  ALP: 574.8 IU/L
  ALT: 29.2 IU/L
  AST: 60.6 IU/L
  BUN: 22 mg/dL
  CRE: 0.6 mg/dL
  DBIL: 0.014 mg/dL
  GLC: 187.4 mg/dL
  IP: 6.3 mg/dL
  K: 4.6 meq/L
  LDH: 63.6 IU/L
  Na: 139.4 meq/L
  PL: 145.8 mg/dL
  RALB: 4 g/dL
  TBIL: 0.3 mg/dL
  TC: 66 mg/dL
  TG: 147 mg/dL
  TP: 6.3 g/dL
  gamma-GTP: 1.6 IU/L
[5]
  TERMINAL_BW: 225 g
  APTT: 15.8 s
  Bas: 0%
  Eos: 0.8%
  Fbg: 368.2 mg/dL
  Hb: 14 g/dL
  Ht: 41.8%
  Lym: 70.2%
  MCH: 21.7 pg
  MCHC: 33.4%
  MCV: 65.1 fL
  Mono: 13%
  Neu: 16%
  PT: 12.5 s
  Plat: 115.9 x10_4/uL
  RBC: 642.4 x10_4/ul
  Ret: 5.2%
  WBC: 122.6 x10_2/uL
  KIDNEY_L: 1.6 g
  KIDNEY_R: 1.7 g
  KIDNEY_TOTAL: 3.2 g
  LIVER: 9.7 g
  ALP: 838.2 IU/L
  ALT: 27.6 IU/L
  AST: 61.2 IU/L
  BUN: 35.2 mg/dL
  CRE: 0.8 mg/dL
  Ca: 11.5 mg/dL
  DBIL: 0 mg/dL
  GLC: 192 mg/dL
  IP: 8 mg/dL
  K: 4.8 meq/L
  LDH: 165.4 IU/L
  Na: 139 meq/L
  PL: 142 mg/dL
  RALB: 3.8 g/dL
  TBIL: 0.3 mg/dL
  TC: 87 mg/dL
  TG: 47.8 mg/dL
  TP: 6.3 g/dL
  gamma-GTP: 4.2 IU/L
[6]
  TERMINAL_BW: 245.1 g
  APTT: 16.2 s
  Bas: 0%
  Eos: 1%
  Fbg: 300.7 mg/dL
  Hb: 14.2 g/dL
  Ht: 42.6%
  Lym: 77.7%
  MCH: 21 pg
  MCHC: 33.2%
  MCV: 63.2 fL
  Mono: 6.7%
  Neu: 15.3%
  PT: 12.9 s
  Plat: 122.5 x10_4/uL
  RBC: 676.7 x10_4/ul
  Ret: 2.8%
  WBC: 161 x10_2/uL
  KIDNEY_L: 1.8 g
  KIDNEY_R: 1.9 g
  KIDNEY_TOTAL: 3.7 g
  ALP: 697 IU/L
  ALT: 24.7 IU/L
  AST: 60.7 IU/L
  BUN: 38.7 mg/dL
  CRE: 0.8 mg/dL
  Ca: 11 mg/dL
  DBIL: 0.0367 mg/dL
  GLC: 190 mg/dL
  IP: 5.6 mg/dL
  K: 4.6 meq/L
  LDH: 96.3 IU/L
  Na: 141.3 meq/L
  PL: 139.7 mg/dL
  RALB: 3.8 g/dL
  TBIL: 0.2 mg/dL
  TC: 80.7 mg/dL
  TG: 64.3 mg/dL
  TP: 6.2 g/dL
  gamma-GTP: 3 IU/L
[7]
  TERMINAL_BW: 248.1 g
  APTT: 16.1 s
  Bas: 0%
  Eos: 1%
  Fbg: 414 mg/dL
  Hb: 14.4 g/dL
  Ht: 42.8%
  Lym: 52%
  MCH: 19.8 pg
  MCHC: 33.5%
  MCV: 59 fL
  Mono: 7%
  Neu: 40.4%
  PT: 13.3 s
  RBC: 725 x10_4/ul
  Ret: 2.1%
  WBC: 209.4 x10_2/uL
  KIDNEY_L: 2.8 g
  KIDNEY_R: 2.9 g
  KIDNEY_TOTAL: 5.7 g
  ALP: 608.6 IU/L
  ALT: 23.4 IU/L
  AST: 62.8 IU/L
  BUN: 66.2 mg/dL
  CRE: 1 mg/dL
  DBIL: 0 mg/dL
  GLC: 177 mg/dL
  IP: 5.1 mg/dL
  K: 4.5 meq/L
  LDH: 150.8 IU/L
  Na: 140.2 meq/L
  PL: 154.8 mg/dL
  RALB: 3.3 g/dL
  TBIL: 0.3 mg/dL
  TC: 91.2 mg/dL
  TP: 6.1 g/dL
  gamma-GTP: 6 IU/L
[8]
  TERMINAL_BW: 319.9 g
  APTT: 15.3 s
  Bas: 0%
  Eos: 0.5%
  Fbg: 319.5 mg/dL
  Hb: 13.7 g/dL
  Ht: 40.8%
  Lym: 74.8%
  MCH: 19.2 pg
  MCHC: 33.6%
  MCV: 57.1 fL
  Mono: 3.2%
  Neu: 21%
  PT: 13 s
  Plat: 117.9 x10_4/uL
  RBC: 713.5 x10_4/ul
  Ret: 3.9%
  WBC: 344.2 x10_2/uL
  KIDNEY_L: 3 g
  KIDNEY_R: 2.7 g
  KIDNEY_TOTAL: 5.6 g
  LIVER: 12.1 g
  ALP: 482 IU/L
  ALT: 29.8 IU/L
  AST: 68.8 IU/L
  BUN: 61.2 mg/dL
  CRE: 1.1 mg/dL
  Ca: 11.3 mg/dL
  DBIL: 0.015 mg/dL
  GLC: 163.5 mg/dL
  IP: 5.2 mg/dL
  K: 4.8 meq/L
  LDH: 150.8 IU/L
  Na: 141.5 meq/L
  PL: 162.5 mg/dL
  RALB: 3.7 g/dL
  TBIL: 0.2 mg/dL
  TC: 98.2 mg/dL
  TG: 79 mg/dL
  TP: 6.3 g/dL
  gamma-GTP: 3.8 IU/L
